In patent US20220213099A1, “PRODRUG COMPOUNDS” (BRISTOL-MYERS SQUIBB COMPANY, priority 2019, published 2022):
Values after ≈ are worked out from the molar mass of the structure shown. Counter-ions that a name gives are not always drawn. Like-named read-outs stand apart in the source and are kept apart here.

Experiments:
[1] = Stability evaluation in aqueous buffer; assay type: physicochemical; conditions: aqueous buffer, 37° C., about 50 μg/mL, about 15% v/v acetonitrile
Protocol: The stability study of an individual prodrug was conducted with about 50 μg/mL solutions in aqueous buffers of pH 1 (0.1 M HCl), 4 (acetate buffer) and 6.5 (phosphate buffer) at 37° C. for 24 hours. About 15% v/v acetonitrile was used in these pH buffers as a co-solvent to obtain clear solutions of prodrugs. The sample analysis was carried out using a generic reversed phase liquid chromatographic (LC) method with UV detection. The area percent (AP) loss of the prodrug peak was quantified as a function of time. The appearance of parent peak was identified from the chromatographic retention time. The half-life (t1/2, h) of the prodrug was calculated by using a pseudo-first order equation from a AP loss vs time plot.

[2] = Solubility evaluation in aqueous buffer; assay type: physicochemical; conditions: thermodynamic from solid, about 24 hours equilibration
Protocol: The solid powder of an individual prodrug was equilibrated in aqueous buffers of pH 1, 4 and 6.5 at 25° C. for about 24 hours. After equilibration, the excess solid was separated by filtration using 0.45 μm membrane filter and the filtrate was collected in suitable glass vial. The filtrate was diluted appropriately using respective buffers/diluent and analyzed by a reversed phase LC method with UV detection.

[3] = pH 1, pH 1 (0.1 M HCl), read-out: Stability (t1/2, h) at 37° C. pH 1 (converted)
[4] = pH 4, pH 4 (acetate buffer), read-out: Stability (t1/2, h) at 37° C. pH 4 (converted)
[5] = pH 6.5, pH 6.5 (phosphate buffer), read-out: Stability (t1/2, h) at 37° C. pH 6.5 (converted)
[6] = aqueous buffer, 25 °C, pH 1, simulated gastric fluid, aqueous buffer pH 1, 25° C., read-out: Solubility (mg/mL) at 25° C. pH 1
[7] = aqueous buffer, 25 °C, pH 4, aqueous buffer, aqueous buffer pH 4, 25° C., read-out: Solubility (mg/mL) at 25° C. pH 4
[8] = aqueous buffer, 25 °C, pH 6.5, aqueous buffer, aqueous buffer pH 6.5, 25° C., read-out: Solubility (mg/mL) at 25° C. pH 6.5

For Cc1c(-c2c(C(C)C)c3cc(C4CCN(CC(N)=O)CC4)ccc3n2C(=O)CCCOP(=O)(O)O)cn2ncnc2c1C [Example 10, 4-(5-(1-(2-Amino-2-oxoethyl)piperidin-4-yl)-2-(7,8-dimethyl-[1,2,4]triazolo[1,5-a]pyridin-6-yl)-3-isopropyl-1H-indol-1-yl)-4-oxobutyl dihydrogen phosphate], the half-life [1, 3] was 347 h, the half-life [1, 4] was over 500 h and the half-life [1, 5] was over 500 h. It also gave a solubility [2, 6] of 0.43 mg/mL, a solubility [2, 7] of 0.1 mg/mL and a solubility [2, 8] of 0.12 mg/mL.
Cc1c(-c2c(C(C)C)c3cc(C4CCN(CC(N)=O)CC4)ccc3n2SC[C@H](N)C(=O)O)cn2ncnc2c1C [Example 11, S-(5-(1-(2-Amino-2-oxoethyl)piperidin-4-yl)-2-(7,8-dimethyl-[1,2,4]triazolo[1,5-a]pyridin-6-yl)-3-isopropyl-1H-indol-1-yl)-L-cysteine] showed a half-life [1, 3] of over 500 h, a half-life [1, 4] of over 500 h and a half-life [1, 5] of 154 h. For the same compound, the solubility [2, 6] was over 1.03 mg/mL, the solubility [2, 7] was 0.007 mg/mL (≈ 12.4 µM) and the solubility [2, 8] was over 1.02 mg/mL.
CNCC(=O)OCc1cccnc1N(C)C(=O)OC(C)[N+]1(CC(N)=O)CCC(c2ccc3[nH]c(-c4cn5ncnc5c(C)c4C)c(C(C)C)c3c2)CC1 (stereo not shown) [Example 14, 1-(2-Amino-2-oxoethyl)-4-(2-(7,8-dimethyl-[1,2,4]triazolo[1,5-a]pyridin-6-yl)-3-isopropyl-1H-indol-5-yl)-1-(1-((methyl(3-(((methylglycyl)oxy)methyl)pyridin-2-yl)carbamoyl)oxy)ethyl)piperidin-1-ium ditrifluoroacetate] gave a half-life [1, 3] of 179 h, a half-life [1, 4] of 85 h and a half-life [1, 5] of 1.6 h. For the same compound, the solubility [2, 6] was over 1.51 mg/mL and the solubility [2, 7] was over 0.98 mg/mL.
Work on Cc1c(-c2c(C(C)C)c3cc(C4CCN(CC(N)=O)CC4)ccc3n2C(=O)OCOC(=O)C2(N)CC2)cn2ncnc2c1C [Example 15, ((1-Aminocyclopropane-1-carbonyl)oxy)methyl 5-(1-(2-amino-2-oxoethyl)piperidin-4-yl)-2-(7,8-dimethyl-[1,2,4]triazolo[1,5-a]pyridin-6-yl)-3-isopropyl-1H-indole-1-carboxylate trifluoroacetate] yielded a half-life [1, 3] of 347 h, a half-life [1, 4] of 139 h and a half-life [1, 5] of 39 h. The solubility [2, 6] was over 0.94 mg/mL, the solubility [2, 7] was over 0.9 mg/mL and the solubility [2, 8] was 0.8 mg/mL.
For Cc1c(-c2c(C(C)C)c3cc(C4CCN(CC(N)=O)CC4)ccc3n2C(=O)CN(C)C(=O)OCOP(=O)(O)O)cn2ncnc2c1C [Example 19, (Phosphonooxy)methyl (2-(5-(1-(2-amino-2-oxoethyl)piperidin-4-yl)-2-(7,8-dimethyl-[1,2,4]triazolo[1,5-a]pyridin-6-yl)-3-isopropyl-1H-indol-1-yl)-2-oxoethyl)(methyl) carbamate], the half-life [1, 3] was 157 h, the half-life [1, 4] was 207 h and the half-life [1, 5] was 65 h. For the same compound, the solubility [2, 6] was over 1.09 mg/mL, the solubility [2, 7] was 0.7 mg/mL (≈ 1050 µM) and the solubility [2, 8] was over 1.01 mg/mL.
COc1cc(C(=O)OCOC(=O)n2c(-c3cn4ncnc4c(C)c3C)c(C(C)C)c3cc(C4CCN(CC(N)=O)CC4)ccc32)ccc1OP(=O)(O)O [Example 22, ((3-Methoxy-4-(phosphonooxy)benzoyl)oxy)methyl 5-(1-(2-amino-2-oxoethyl)piperidin-4-yl)-2-(7,8-dimethyl-[1,2,4]triazolo[1,5-a]pyridin-6-yl)-3-isopropyl-1H-indole-1-carboxylate] showed a half-life ([1]; pH 1 (0.1 M HCl), read-out: Stability (t1/2, h) at 37° C. pH 1 (converted)) of 400 h, a half-life ([1]; pH 4 (acetate buffer), read-out: Stability (t1/2, h) at 37° C. pH 4 (converted)) of over 500 h and a half-life ([1]; pH 6.5 (phosphate buffer), read-out: Stability (t1/2, h) at 37° C. pH 6.5 (converted)) of over 500 h. For the same compound, the solubility ([2]; simulated gastric fluid, aqueous buffer pH 1, 25° C., read-out: Solubility (mg/mL) at 25° C. pH 1) was over 1.02 mg/mL, the solubility ([2]; aqueous buffer pH 4, 25° C., read-out: Solubility (mg/mL) at 25° C. pH 4) was 0.02 mg/mL (≈ 26.7 µM) and the solubility ([2]; aqueous buffer pH 6.5, 25° C., read-out: Solubility (mg/mL) at 25° C. pH 6.5) was 0.02 mg/mL (≈ 26.7 µM).
Work on CNCCN(C)C(=O)OC[N+]1(CC(N)=O)CCC(c2ccc3[nH]c(-c4cn5ncnc5c(C)c4C)c(C(C)C)c3c2)CC1 (stereo not shown) [Example 23, 1-(2-Amino-2-oxoethyl)-4-(2-(7,8-dimethyl-[1,2,4]triazolo[1,5-a]pyridin-6-yl)-3-isopropyl-1H-indol-5-yl)-1-(((methyl(2-(methylamino)ethyl)carbamoyl)oxy)methyl) piperidin-1-ium trifluoroacetate] yielded a half-life [1, 3] of over 500 h, a half-life [1, 4] of 9.6 h and a half-life [1, 5] of 0.1 h. For the same compound, the solubility [2, 6] was over 0.82 mg/mL and the solubility [2, 7] was over 0.85 mg/mL.
